Where “and” joins values, the source holds several entries; their conditions need not be identical. Identical values can stand only once.
What was measured:
fleas = test: Effect of washing on persistency, flea comb count on dogs (Example 2); type: in vivo, Ctenocephalides felis; conditions: for Group Average Count: Day 44; for Flea Count: individual dog, Day 44, infested with 100 fleas Day 43
Method: At completion of the study described in Experiment 1 above, a further washing study was conducted using the six dogs in Group E for a further two weeks.
During the two-week period, four of the six dogs from Group E were washed twice weekly in a non-insecticidal hydrobath, while the other two dogs from Group E were not washed and acted as controls. On Day 43 post-treatment, the 6 dogs were infested with 100 fleas and then had their ability to retain a flea infestation assessed on Day 44 by a flea comb count.

[1] = test system: fleas (Ctenocephalides felis); test: Dose response study on canines against fleas, Indoxacarb spot-on (Example 1); type: in vivo; conditions: for reduction of flea infestation: dogs
Method: A non-blinded prospective longitudinal artificial infestation parasite efficacy pen study was conducted with a fully randomized design (ranking and blocking based on breed and pre-treatment flea count). There were 5 treatment groups of 6 dogs each, and an untreated control group.
Thirty-three (33) adult dogs (Labrador Retrievers and Jack Russell Terriers) were inducted, clinically examined, weighed, identified and allocated to study pens on Day −7. Each dog was artificially infested with 100 fleas (Ctenocephalides felis) on Day −5 and again on Day −2. On Day −1 flea thumb counts were performed on all dogs and 30 dogs were selected for inclusion. These dogs were randomly allocated to 5 similar groups of 6 animals on the basis of breed and flea counts, and groups were allocated to study pens. On Day 0, Groups B, C, D and E were treated with a local topical administration formulation containing Indoxacarb (DPX-K128) dissolved in a mixture of Dimethyl Isosorbide (DMI) and Propylene Glycol Monomethyl Ether (90% Dimethyl Isosorbide (DMI) and 10% Propylene Glycol Monomethyl Ether by volume) to form a total concentration of 75, 100, 125 or 150 g/L of Indoxacarb (DPX-K128). The starting material to prepare the formulation was a mixture of DPX-K128-and DPX-KN127 (the R-isomer of Formula 1) and contained 70.43% Indoxacarb (DPX-K128). […] The formulation was administered via spot-on application (i.e. applying in liquid form to less than or equal to 10% of the surface area of the animal) to the dorsal midline at the rate of 0.1 mL/1 kg. Group A remained untreated as controls. Group B was dosed at the rate of 7.5 mg/kg; Group C at the rate of 10.0 mg/kg; Group D at the rate of 12.5 mg/kg; and Group E at the rate of 15.0 mg/kg.
Flea thumb counts were performed at 24 hours. Flea comb counts were performed at 48 hours post-treatment and all dogs then treated with Capstar® oral tablets (Nitenpyram, Novartis Animal Health) to remove all fleas prior to the next infestation. Animals were re-infested with 100 adult fleas at 7, 14, 21 and 28 days post-treatment. At 24 hours after each infestation, flea comb counts were performed followed by Capstar treatment.

## COC(=O)N(C(=O)N1CO[C@@]2(C(=O)OC)Cc3cc(Cl)ccc3C2=N1)c1ccc(OC(F)(F)F)cc1 [Indoxacarb, (S)-methyl 7-chloro-2,5-dihydro-2-[[(methoxycarbonyl)[4-(trifluoromethoxy)phenyl]amino]carbonyl]indeno[1,2-e][1,3,4]oxadiazine-4a(3H)-carboxylate]
fleas; 44 days, after 4 shampoo hydrobath washes
  persistence after washing: excellent persistence
fleas; Treated Non-Wash
  Group Average Count: 0
fleas; Treated Wash
  Group Average Count: 3
fleas; Treated Non-Wash (15.0 mg/kg)
  Flea Count: 0
fleas; Treated Wash (15.0 mg/kg, washed twice weekly for two weeks)
  Flea Count: 4 and 5 and 1 and 2
[1]; all four groups (7.5-15.0 mg/kg), from the 48 hour count until 29 days post-treatment
  persistent efficacy, reduction: ≥ 99%
[1]; spot-on 7.5 mg/kg (Group B), 24 hrs post-treatment
  reduction of flea infestation: 97.9%
[1]; spot-on 7.5 mg/kg (Group B), 48 hrs post-treatment
  reduction of flea infestation: 99.4%
[1]; spot-on 10.0 mg/kg (Group C), 24 hrs post-treatment
  reduction of flea infestation: 97.9%
[1]; spot-on 10.0 mg/kg (Group C), 48 hrs post-treatment
  reduction of flea infestation: 100%
[1]; spot-on 12.5 mg/kg (Group D), 24 hrs post-treatment
  reduction of flea infestation: 99.0%
[1]; spot-on 12.5 mg/kg (Group D), 48 hrs post-treatment
  reduction of flea infestation: 100%
[1]; spot-on 15.0 mg/kg (Group E), 24 hrs post-treatment
  reduction of flea infestation: 100%
[1]; spot-on 15.0 mg/kg (Group E), 48 hrs post-treatment
  reduction of flea infestation: 99.4%

From patent US9968617B2, “Local topical administration formulations containing indoxacarb” (E.I. du Pont de Nemours and Company, priority 2006, dated 2018)
